Test results from the NIST ThermoML archive (doi:10.1016/j.tca.2016.04.013).

Experiments:
[1] = 101.33 kPa, Crystal, relaxation calorimetry
[2] = molar heat capacity at constant pressure; conditions: 101.33 kPa, Crystal, relaxation calorimetry

O=c1cc(Cl)[nH]c(=O)[nH]1 [6-chlorouracil]
Conditions	molar entropy, [1] [J/K/mol]	molar heat capacity at constant pressure, [2] [J/K/mol]
0.5 K	0.00109	0.00126
1 K	0.00269	0.00405
1.93 K	–	0.0182
2 K	0.00944	0.0203
2.15 K	–	0.0242
2.38 K	–	0.0322
2.65 K	–	0.043
2.95 K	–	0.0584
3 K	0.0242	0.0602
3.27 K	–	0.0782
3.63 K	–	0.103
4 K	0.0508	0.135
4.04 K	–	0.139
4.48 K	–	0.186
4.98 K	–	0.247
5 K	0.0926	0.252
5.52 K	–	0.332
6 K	0.152	0.415
6.12 K	–	0.436
6.79 K	–	0.58
7 K	0.232	0.631
7.53 K	–	0.771
8 K	0.333	0.908
8.35 K	–	1.02
9 K	0.459	1.25
9.26 K	–	1.35
10 K	0.612	1.66
10.25 K	–	1.77
11.34 K	–	2.31
12.58 K	–	3.02
13.97 K	–	3.91
15 K	1.8	4.63
15.49 K	–	4.99
17.19 K	–	6.32
19.09 K	–	7.91
20 K	3.67	8.68
21.19 K	–	9.7
23.51 K	–	11.78
25 K	6.08	13.17
26.09 K	–	14.1
28.91 K	–	16.74
30 K	8.88	17.67
32.12 K	–	19.59
35 K	11.94	22.04
35.65 K	–	22.58
39.54 K	–	25.93
40 K	15.15	26.22
43.88 K	–	29.29
45 K	18.47	30.18
48.68 K	–	32.81
50 K	21.85	33.87
54.02 K	–	36.6
59.94 K	–	40.61
60 K	28.63	40.68
66.52 K	–	44.81
70 K	35.37	46.77
73.83 K	–	48.95
80 K	41.97	52.2
81.96 K	–	53.22
90 K	48.41	57.15
90.91 K	–	57.53
100 K	54.67	61.75
100.89 K	–	61.78
110 K	60.76	66.1
111.04 K	–	66.68
120 K	66.7	70.26
121.13 K	–	70.82
130 K	72.48	74.29
131.15 K	–	74.92
140 K	78.13	78.22
141.29 K	–	78.76
150 K	83.66	82.08
151.38 K	–	82.6
160 K	89.08	85.89
161.47 K	–	86.43
170 K	94.4	89.66
171.56 K	–	90.19
180 K	99.63	93.41
181.61 K	–	94.08
190 K	104.78	97.14
191.69 K	–	97.83
200 K	109.85	100.85
201.81 K	–	101.23
210 K	114.86	104.56
211.89 K	–	105.16
220 K	119.81	108.26
222 K	–	108.99
230 K	124.71	111.96
232.08 K	–	112.88
240 K	129.55	115.64
242.1 K	–	116.48
250 K	134.35	119.33
252.19 K	–	120.07
260 K	139.1	123
262.33 K	–	123.73
270 K	143.81	126.67
272.41 K	–	127.71
273.15 K	145.28	127.82
280 K	148.48	130.33
282.41 K	–	131.41
290 K	153.12	133.98
292.56 K	–	134.98
298.15 K	156.87	136.94
300 K	157.72	137.62
302.57 K	–	138.3

Oc1ncc(Cl)c(O)n1 [5-chloro-2,4-pyrimidinedione]
Conditions	molar entropy, [1] [J/K/mol]	molar heat capacity at constant pressure, [2] [J/K/mol]
0.5 K	0.000378	0.000485
1 K	0.00108	0.00194
2 K	0.00473	0.0116
2.04 K	–	0.0119
2.26 K	–	0.0165
2.51 K	–	0.0224
2.79 K	–	0.0297
3 K	0.0135	0.0367
3.1 K	–	0.0407
3.44 K	–	0.0549
3.82 K	–	0.0739
4 K	0.0301	0.085
4.24 K	–	0.101
4.71 K	–	0.138
5 K	0.0569	0.164
5.24 K	–	0.188
5.81 K	–	0.257
6 K	0.0966	0.282
6.44 K	–	0.35
7 K	0.152	0.446
7.17 K	–	0.479
7.91 K	–	0.649
8 K	0.225	0.665
8.78 K	–	0.878
9 K	0.319	0.945
9.74 K	–	1.19
10 K	0.435	1.28
10.81 K	–	1.59
11.99 K	–	2.14
13.31 K	–	2.79
14.74 K	–	3.64
15 K	1.39	3.81
16.35 K	–	4.68
18.13 K	–	6.06
20 K	2.96	7.44
20.12 K	–	7.49
22.32 K	–	9.36
24.77 K	–	11.49
25 K	5.07	11.69
27.49 K	–	13.93
30 K	7.59	16.14
30.5 K	–	16.6
33.86 K	–	19.52
35 K	10.42	20.57
37.57 K	–	22.81
40 K	13.44	24.87
41.69 K	–	26.3
45 K	16.61	28.97
46.26 K	–	29.88
50 K	19.87	32.81
51.34 K	–	34.08
56.96 K	–	37.64
60 K	26.48	39.81
63.23 K	–	41.77
70 K	33.09	45.98
70.19 K	–	45.99
77.89 K	–	50.5
80 K	39.6	51.52
86.44 K	–	54.98
90 K	45.96	56.6
95.96 K	–	59.39
100 K	52.17	61.33
106.02 K	–	64.02
110 K	58.23	65.83
116.12 K	–	68.52
120 K	64.15	70.16
126.18 K	–	72.83
130 K	69.93	74.35
136.3 K	–	76.98
140 K	75.59	78.45
146.41 K	–	80.91
150 K	81.14	82.47
156.52 K	–	84.91
160 K	86.59	86.42
166.6 K	–	89.11
170 K	91.94	90.33
176.69 K	–	92.91
180 K	97.22	94.19
186.77 K	–	96.98
190 K	102.41	98.02
196.85 K	–	100.43
200 K	107.53	101.81
206.94 K	–	104.46
210 K	112.59	105.58
217.03 K	–	107.97
220 K	117.59	109.32
227.26 K	–	112.17
230 K	122.53	113.04
234.67 K	–	114.85
240 K	127.42	116.74
244.74 K	–	118.78
250 K	132.26	120.42
254.84 K	–	122.35
260 K	137.06	124.08
264.91 K	–	125.73
270 K	141.81	127.73
273.15 K	143.3	128.88
275 K	–	129.5
280 K	146.52	131.37
285.08 K	–	132.72
290 K	151.19	135
295.37 K	–	136.73
298.15 K	154.97	137.95
300 K	155.83	138.62
302.71 K	–	140.1
